Assay results as given in patent US8815872B2, “Macrocyclics pyrimidines as aurora kinase inhibitors” (Merck Patent GmbH, priority 2008, dated 2014).
Read-outs that look alike come from different tables or passages of the source.

Columns and labels:
Aurora A = molecular target: T1, Aurora A (Homo sapiens, UniProt O14965); test: Aurora A enzyme assay (Caliper LC3000 mobility shift); format: biochemical
T1 construct: N-terminal GST fusion with full length Aurora A (1-403 amino acids); purchased Carna Biosciences 05-101
T1 sequence (O14965 1-403): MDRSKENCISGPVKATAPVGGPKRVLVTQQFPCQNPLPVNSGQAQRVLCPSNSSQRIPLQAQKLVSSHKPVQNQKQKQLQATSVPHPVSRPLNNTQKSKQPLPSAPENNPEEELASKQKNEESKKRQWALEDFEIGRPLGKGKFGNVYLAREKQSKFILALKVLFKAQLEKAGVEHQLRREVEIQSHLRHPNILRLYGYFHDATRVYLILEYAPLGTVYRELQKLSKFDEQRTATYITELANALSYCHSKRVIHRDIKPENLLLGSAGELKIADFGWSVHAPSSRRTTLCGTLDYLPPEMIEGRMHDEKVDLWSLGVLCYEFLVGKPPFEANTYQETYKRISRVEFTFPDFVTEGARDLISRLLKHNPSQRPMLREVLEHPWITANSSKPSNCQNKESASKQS
Description: (§1) The Aurora and other kinase assays described here were performed on two Caliper Life Sciences systems, the LC3000 and the Desktop Profiler. These provide data on enzyme activity via measurement of the relative amounts of phosphorylated or unphosphorylated fluorescently labelled substrate peptide at the end of an enzymatic reaction. These different states of peptide are resolved by applying a potential difference across the sample. The presence of a charged phosphate group on the product (as opposed to the substrate) causes a different peptide mobility between the two peptides. This is visualized by excitation of a fluorescent label on the substrate and product peptides and represented as peaks within the analysis software.
For example, in order to measure inhibitor activity of Aurora A inhibitors in the Caliper Life Sciences LC3000, a TTP Mosquito liquid handling instrument was used to place […] of an appropriate concentration of inhibitor in 100% DMSO (for a dose response curve calculation) into each well of a 384-well plate. To this reaction components were added to a final volume of 25 μl: • 0.067 ng/μl GST-Aurora A (Carna Biosciences 05-101. N-terminal GST fusion with full length Aurora A (1-403 amino acids), accession number NP_940835.1). • 15 μM ATP (Fluka, 02055) • 1 mM DTT (Sigma, D0632) • 1 mM MgC12 (Sigma, M1028) • 1 μM substrate peptide (sequence FITC-LRRASLG-(CONH2), synthesized by Tufts Peptide Synthesis service. • 100 mM HEPES pH 7.5 (Calbiochem, 391338) • 0.015% Brij-35 (Sigma, B4184)
The reaction was incubated for 90 min at 25° C., and then stopped by the addition of 70 μl of Stop buffer (100 mM HEPES pH 7.5, 0.015% Brij-35, 10 mM EDTA (Sigma, E7889)).
The plate was read on a Caliper LC 3000 in an Off-Chip mobility shift assay format, using the following parameters for a 12-sipper chip: screening pressure −1.8 psi, upstream voltage −2700, downstream voltage −1000. These conditions cause unphosphorylated substrate and phosphorylated product peptide to resolve as separate peaks allowing direct measurement of percentage of conversion of substrate to product. The percent conversion was plotted against concentration of inhibitor to produce a sigmoidal dose response curve, from which an IC50 was calculated using XLFit for Microsoft Excel.

Aurora B = Aurora B (Homo sapiens, UniProt Q96GD4); test: Aurora B enzyme assay (Caliper); format: biochemical
Aurora B, sequence (Q96GD4 whole entry): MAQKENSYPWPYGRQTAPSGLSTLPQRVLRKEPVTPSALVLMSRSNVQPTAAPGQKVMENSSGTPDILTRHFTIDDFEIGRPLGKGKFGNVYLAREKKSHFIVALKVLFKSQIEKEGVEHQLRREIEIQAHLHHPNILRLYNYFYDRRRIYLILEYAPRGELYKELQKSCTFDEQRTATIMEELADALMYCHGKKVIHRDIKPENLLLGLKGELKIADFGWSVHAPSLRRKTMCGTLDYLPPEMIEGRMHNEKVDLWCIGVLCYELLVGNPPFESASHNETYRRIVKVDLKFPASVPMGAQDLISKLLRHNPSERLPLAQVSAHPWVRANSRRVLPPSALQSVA
Description: as §1

[1] = molecular target: kinases (not incl. Aurora); test: Kinase inhibition profile (not incl. Aurora); format: biochemical; details: hit means >79% inhibition
Description: as §1
The Desktop Profiler utilizes the same principal as the LC 3000 for calculating percentage conversion of a substrate to product. Caliper Life Sciences provided proprietary flash frozen pre-made 384 well plates containing selected kinases. Each column in the 384 well plate contained a particular selected kinase. A second plate, the ‘substrate plate’ contained a mix of fluorescently labeled peptide substrate and ATP. These were arranged in columns so that transfer for substrate plate to enzyme plate provided the correct enzyme with the correct substrate/ATP concentration.
Compounds were added to a thawed enzyme plate in the desired format, in single concentrations. Reactions were initiated by transfer of the ubstrate/ATP mix from the substrate plate. The enzyme plate was incubated for 90 mins at 25 °C. The reaction was stopped by addition of […] of Stop Buffer (100 mM HEPES pH 7.5, 0.015% Brij-35, 10 mM EDTA (Sigma, E7889)).
Plates were read in a manner identical to that of the LC3000, and the ratio between substrate and product peaks provided the activity of the enzyme in that well. This was best represented by a plate heat map which colors each well by percent inhibition as compared to positive and negative controls (no inhibitors and no ATP respectively).

MiaPaca2 = test: Cellular activity MiaPaca2; format: cell-based
Description: (§2) The susceptibility of a particular cell to treatment with the compounds according to the invention was determined by in vitro tests. Typically, a culture of the cell was combined with a compound according to the invention at various concentrations for a period of time that was sufficient to allow the active agents to induce cell death or to inhibit migration, usually between about one hour and one week. In vitro testing was carried out using cultivated cells from a biopsy sample. The viable cells remaining after the treatment then were counted.

A549 = test: Cellular activity A549; format: cell-based
Description: as §2

Row | SMILES | IC50 (Aurora A) | IC50 (Aurora B) | Kinase Inhibition Profile (not incl. Aurora) # kinases hit/# kinases tested ([1]; at 1 μM) | Kinase Inhibition Profile (not incl. Aurora) # kinases hit/# kinases tested ([1]; at 10 μM) | IC50 (MiaPaca2; Homo sapiens, MIA PaCa-2) | IC50 (A549; Homo sapiens) | IC50 (MiaPaca2; MiaPaca2) | IC50 (A549)
1 | C=CC1CC2/C=C/COc3cccc(c3)Nc3ncc(F)c(n3)N[C@H]2[C@H]1C(N)=O (some centres unmarked) | 101 to 1000 nM | 101 to 1000 nM | 0/36 | 12/255 |  |  |  | 
2 | CN1CCN(c2ccc3cc2CC(=O)NC[C@@H]2C[C@@H]4C[C@H]2[C@@H](Nc2nc(ncc2F)N3)[C@H]4C(N)=O)CC1 | 101 to 1000 nM | 1000 to 6250 nM | 0/73 at 1 μM |  | 1000 to 6250 nM | > 6250 nM |  | 
3 | CN1CCN(c2ccc3cc2[C@@H](O)CS[C@@H]2C[C@@H]4C[C@H]2[C@@H](Nc2nc(ncc2F)N3)[C@H]4C(N)=O)CC1 | 1 to 100 nM | 1 to 100 nM | 121/267 at 1 μM |  | 1 to 100 nM | 1 to 100 nM |  | 
4 | C=CC1CC2/C=C\COc3cccc(c3)Nc3ncc(F)c(n3)N[C@H]2[C@H]1C(N)=O (some centres unmarked) | 1 to 100 nM | 1 to 100 nM | 0/36 at 1 uM |  |  |  |  | 
5 | CN1CCN(c2ccc3cc2NC(=O)CS[C@@H]2C[C@@H]4C[C@H]2[C@@H](Nc2nc(ncc2F)N3)[C@H]4C(N)=O)CC1 [drawing 222] | 1 to 100 nM | 1 to 100 nM | 13/36 at 1 μM |  | 101 to 1000 nM | 101 to 1000 nM |  | 
6 | N#Cc1ccc2cc1NC(=O)CS[C@@H]1C[C@@H]3C[C@H]1[C@@H](Nc1nc(ncc1F)N2)[C@H]3C(N)=O [drawing 223] | 1 to 100 nM | 101 to 1000 nM | 12/38 at 1 μM |  | > 6250 nM | > 6250 nM |  | 
7 | NC(=O)[C@H]1[C@@H]2CC3CNC(=O)c4cccc(c4)Nc4ncc(F)c(n4)N[C@@H]1[C@@H]3C2 (some centres unmarked) [drawing 259] | 1 to 100 nM | 1 to 100 nM | 1/76 at 1 μM |  |  |  | 1000 to 6250 nM | 1000 to 6250 nM
8 | CN1CCN(c2ccc3cc2C(=O)NC[C@@H]2C[C@@H]4C[C@H]2[C@@H](Nc2nc(ncc2F)N3)[C@H]4C(N)=O)CC1 | 101 to 1000 nM | 101 to 1000 nM | 0/73 at 1 μM |  | 1000 to 6250 nM | > 6250 nM |  | 
9 | O=C(O)[C@H]1[C@H]2C[C@H]3[C@H]1Nc1nc(ncc1F)Nc1cccc(c1)OCCS[C@@H]3C2 [drawing 218] | 1 to 100 nM | 1 to 100 nM |  | 8/36 at 10 μM | > 6250 nM | > 6250 nM |  | 
10 | CN1CCN(c2ccc3cc2OCCS[C@@H]2C[C@@H]4C[C@H]2[C@@H](Nc2nc(ncc2F)N3)[C@H]4C(N)=O)CC1 [drawing 220] | 1 to 100 nM | 1 to 100 nM | 12/51 at 1 μM |  | 101 to 1000 nM | 101 to 1000 nM |  | 
11 | NC(=O)[C@H]1[C@H]2C[C@H]3[C@H]1Nc1nc(ncc1F)Nc1cccc(c1)C(=O)CS[C@@H]3C2 [drawing 214] | 1 to 100 nM | 1 to 100 nM | 2/36 at 1 μM |  | 1000 to 6250 nM | 1000 to 6250 nM |  | 
12 | CCC1CC2/C=C\COc3cccc(c3)Nc3ncc(F)c(n3)N[C@H]2[C@H]1C(N)=O (some centres unmarked) | 1 to 100 nM | 1 to 100 nM | 1/36 at 1 uM |  |  |  |  | 
13 | CN1CCN(c2ccc3cc2[C@H](O)CS[C@@H]2C[C@@H]4C[C@H]2[C@@H](Nc2nc(ncc2F)N3)[C@H]4C(N)=O)CC1 | 1 to 100 nM | 1 to 100 nM | 121/267 at 1 μM |  | 1 to 100 nM | 1 to 100 nM |  | 
14 | NC(=O)[C@H]1[C@@H]2C[C@H]3CNC(=O)Cn4cc(cn4)Nc4ncc(F)c(n4)N[C@@H]1[C@@H]3C2 | 1 to 100 nM | 1 to 100 nM | 2/73 at 1 μM |  | 1000 to 6250 nM | > 6250 nM |  | 
15 | NC(=O)[C@H]1[C@H]2C[C@H]3[C@H]1Nc1nc(ncc1F)Nc1cccc(c1)[C@H](O)CS[C@@H]3C2 | 1 to 100 nM | 1 to 100 nM | 0/76 at 1 μM |  | 101 to 1000 nM | 101 to 1000 nM |  | 
16 | CCC1CC2CCCOc3cccc(c3)Nc3ncc(F)c(n3)N[C@H]2[C@H]1C(N)=O (some centres unmarked) | 101 to 1000 nM | 101 to 1000 nM | 0/36 at 1 uM |  |  |  |  | 
17 | NC(=O)[C@H]1[C@@H]2CC3CNC(=O)c4cccc(c4)Nc4ncc(F)c(n4)N[C@@H]1[C@@H]3C2 (some centres unmarked) [drawing 254] | 1 to 100 nM | 1 to 100 nM | 1/76 at 1 μM |  | 1000 to 6250 nM | 1000 to 6250 nM |  | 
18 | NC(=O)[C@H]1[C@H]2C[C@H]3[C@H]1Nc1nc(ncc1F)Nc1cccc(c1)OCCS[C@@H]3C2 [drawing 219] | 1 to 100 nM | 1 to 100 nM | 11/36 at 1 μM |  | 1000 to 6250 nM | 1000 to 6250 nM |  | 
19 | CN1CCN(c2cc3cc(c2)C(=O)NC[C@@H]2C[C@@H]4C[C@H]2[C@@H](Nc2nc(ncc2F)N3)[C@H]4C(N)=O)CC1 | 1 to 100 nM |  | 14/264 at 1 μM |  | 101 to 1000 nM | 1000 to 6250 nM |  | 
20 | NC(=O)[C@H]1[C@H]2C[C@H]3[C@H]1Nc1nc(ncc1F)Nc1cccc(c1)NC(=O)CS[C@@H]3C2 [drawing 221] | 1 to 100 nM | 1 to 100 nM | 12/36 at 1 |  | 101 to 1000 nM | 101 to 1000 nM |  | 
